Laboratory results from patent US20180207228A1, “PEPTIDE COMBINATIONS AND USES THEREOF FOR TREATING GRASS ALLERGY” (ALK-Abelló A/S, priority 2015, published 2018).
Where no end group is shown, it is not given here.

What was measured:
Format in all cases: cell-based, human
[1] = tested on: release of IL-5 upon T cell activation; experiment: Fluorospot assay, IL-5 release (DK1-TCL01, US1-TCL01); settings: head prints TCL-02 DK1; text: 25 TCL-01 DK1 lines
Experimental: (§1) Grass allergic donors were recruited (cohort DK1 including 30 grass allergic individuals, DK2 including 24 grass allergic individuals and US1 including 15 grass allergic individuals). PBMCs were isolated from freshly drawn heparinized blood by gradient centrifugation on lymphoprep (Nycomed, Norway), washed twice and re-suspended in RPMI 1640 medium with HEPES and ultraglutamine (Cambrex, Belgium) supplemented with 5% v/v human AB-serum (Cambrex, Belgium), 100 units/ml penicillin, and 0.1 mg/ml streptomycin (Sigma, St Louis, USA) (referred to as 5% AB-medium). Aliquots of the isolated PBMCs were frozen and were thawed later to stimulate the T cell lines. Additionally either fresh or thawed PBMCs were used as antigen presenting cells (APCs) in the proliferation assay as described later. In some cases the PBMCs were freezed at this stage and thawed later on to continue the experiment as described in the following. The isolated PBMCs (fresh or thawed) were CD8 depleted by MACS magnetic depletion according to the manufacturer's instructions (Miltenyi Biotec, Bergisch Gladbach, Germany). On day 0 the CD8-depleted PBMCs (2×10^6/ml) were stimulated in 1 ml bulk cultures in AB medium in 24 well plates (Nunc, Denmark) with the mixture of natural allergens: nPhl p 1 (0.5 μg/ml), mix of nPhl p 2/nPhl p 3 (1.0 μg/ml), nPhl p 4 (0.5 μg/ml), nPhl p 5 (0.5 μg/ml) and nCyn d 1 (0.5 μg/ml). Amount of 65 U, 30 U, and 30 U recombinant IL-2 (Chiron, USA) were added per well at days 5, 6 and 7, respectively. On day 14 cells were harvested to obtain T cell line generation 01 (referred to as TCL01).
(§2) On day 14 the T cells of TCL01 were isolated, washed and counted. The isolated T cells of TCL01 generation were used to perform either ELISpot or Fluorospot assay. TCL01 were further re-stimulated as described in the next paragraph for use in T cell proliferation. The aliquot for use in T cell proliferation was re-stimulated on day 14 to carry out proliferation experiment at day 24.
(§3) In the Fluorospot assays, release of IL-5 and IFN-γ upon T cell activation (of donor derived lines DK1-TCL01, and US1-TCL01) with a peptide or a peptide-mix described herein was measured by Fluorospot assay kit (Mabtech AB) and procedures were followed as per manufacturer's instructions. Briefly anti-human IL-5 and anti-human IFN-γ coated 96 well plates were obtained and blocked with 10% AB serum in RPMI. The plates were washed thoroughly and the isolated T cells were plated and incubated with either single peptides (2 μg/ml) or peptide mixes (2 μg/ml), or allergens nPhl p1, nPhl p 2, nPhl p 3, nPhl p 4, nPhl p 5, Cyn d 1 at 2 μg/ml for 20 hrs/37° C./5% CO2. After the incubation time the cells were removed by emptying the plate. Detection antibodies 7-B6-1-FS-FITC (1:200) and 5A10-biotin (2 μg/ml) were diluted in PBS-0.1% BSA and were added to the plate and incubated for 2 hours/room temperature (RT). There-after the plates were washed and anti-FITC-green (1:200) and SA-Red (1:200) diluted in PBS±0.1% BSA were added and incubated for 1 hour/RT/dark. After the incubation period the plates were washed, emptied and fluorescence enhancer solution was added for 15 minutes/RT. Plates were emptied, fluorescence enhancer solution was firmly tapped out against a clean paper, soft plastic under drain was removed and the plates were left in the dark to dry. The counts were inspected in a fluorospot reader. Hit criteria for peptide were 20 SFCs/10^6 PBMCs, p≤0.05 and poisson 0.05 stimulated cells compared to background, and a stimulation index (SI)≥2.
(§4) The peptides were identified as hits if they fulfilled the criteria as mentioned below where stimulation index (SI) value of 2 or above, Poisson value=<0.05 and P value=<0.05, SFC>=20 (IL-5/IFN-g)/10^6 cells and CPM>=1000 (proliferation) SI can be defined as [[…]/medium control] in a Fluorospot assay and [counts per minute (cpm)/medium control] in a proliferation assay.

[2] = tested on: release of IFN-γ upon T cell activation; experiment: Fluorospot assay, IFN-γ release (DK1-TCL01, US1-TCL01); settings: head prints TCL-02 DK1; 17 TCL-01 DK1 lines
Experimental: as §1, §2, §3, §4

[3] = tested on: allergen specific T cells; experiment: T cell proliferation assay (72 h) on donor derived T cell lines (TCL02/TCL03); settings: for Proliferation % donor coverage (TCL-02 DK1): T cell lines TCL-02 DK1, 30 donors, hit criteria SI>=2, CPM>=1000; for Proliferation strength (TCL-02 DK1): T cell lines TCL-02 DK1, strength of response (average relative magnitude)
Procedure, shortened: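 Overlapping 20-mer and selected 15-mer grass allergen peptides were screened for proliferation using TCL02 (day 24) or TCL03 (day 34) lines. Lines came from grass-allergic donors' CD8-depleted PBMCs, primed with natural allergen mix and expanded with irradiated autologous or allogeneic APCs, PHA-P 0.5 μg/ml and rIL-2.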

Substance | IL-5-Fluorospotr % donor coverage (TCL-02 DK1) [1] | IFN-gamma % donor coverage (TCL-02 DK1) [2] | Proliferation % donor coverage (TCL-02 DK1) [3] | Proliferation strength (TCL-02 DK1) [3]
AEGLSGEPKGAAESSSKAAL-OH [compound 77] | 0.00% | 0.00% | 3.33% | 0.40
AEPAGKATTEEQKLIEKINA-OH [compound 74] | 4.00% | 0.00% | 10.00% | 1.50
AEVELRQHGSEEWEPLTKKG-OH [compound 43] | 4.00% | 0.00% | 3.33% | 0.70
AFGAMAKKGDEQKLRSAGEL-OH [compound 22] | 4.00% | 15.00% | 26.67% | 2.10
AGELELQFRRVKSKYPEGTK-OH [compound 7] | 28.00% | 4.00% | 40.00% | 8.10
AGYTPAAPAGAEPAGKATTE-OH [compound 61] | 16.00% | 0.00% | 26.67% | 3.40
AIGDKPGPNITATYGSKWLE-OH [compound 89] | 0.00% | 0.00% | 6.67% | 1.10
AMSEAQKAAKPAAAATATAT-OH [compound 86] | 0.00% | 0.00% | 10.00% | 1.40
ASGYKDVDKPPFDGMTASGN-OH [compound 93] | 0.00% | 0.00% | 16.67% | 2.40
AVKPAAEEVKVIPAGELQVI-OH [compound 81] | 0.00% | 0.00% | 20.00% | 2.60
AYKTAEGATPEAKYDAYVAT-OH [compound 79] | 0.00% | 0.00% | 26.67% | 3.30
DGKARTAWVDSGAQLGELYY-OH [compound 54] | 4.00% | 4.00% | 26.67% | 4.20
DKYRTFVATFGAASNKAFAE-OH [compound 64] | 16.00% | 0.00% | 36.67% | 6.00
EAAFNNAIKASTGGAYESYK-OH [compound 83] | 0.00% | 0.00% | 10.00% | 0.90
EAKYDAYVATLSEALRIIAG-OH [compound 66] | 20.83% | 0.00% | 46.67% | 11.20
EGTKVTFHVEKGSNPNYLAL-OH [compound 24] | 16.00% | 4.00% | 36.67% | 7.40
EIKSTKPEASSGEPVVVHIT-OH [compound 3] | 8.00% | 8.00% | 36.67% | 3.40
ELTLQFRRVKSKYPSGTKIT-OH [compound 102] | 4.00% | 8.00% | 33.33% | 4.70
EPIFKDGLGSRASYEIKSKE-OH [compound 95] | 0.00% | 4.00% | 20.00% | 2.20
EQKLIEKINAGFKAALAAAA-OH [compound 62] | 4.00% | 0.00% | 36.67% | 6.20
EVELREHGSDEWVAMTKGEG-OH [compound 33] | 0.00% | 0.00% | 0.00% | 0.00
EWVAMTKGEGGVWTFDSEEP-OH [compound 27] | 8.00% | 4.00% | 13.33% | 2.30
FAVVDLNKMRAVWVDGKART-OH [compound 47] | 0.00% | 8.00% | 40.00% | 6.20
FRRVKSKYPEGTKVTFHVEK-OH [compound 23] | 4.00% | 0.00% | 20.00% | 1.60
